Laboratory results: US20190388437A1, “COMPOSITIONS AND METHODS FOR TREATING BONE AND JOINT INFECTIONS” (priority 2014, published 2019)
Values after ≈ are worked out from the molar mass of the structure shown.

Columns and labels:
Format in all cases: cell-based
[1] = Synergy testing by the checkerboard method, FA/co-drug; conditions: FA combined with the co-drug
Method: CLSI broth microdilution (BMD) and anaerobic agar dilution (AD) methods were performed. Modifications of standard test methods included adding 10% human serum, adjusting the medium pH to 5, 6, and 8, and synergy was assessed by the checkerboard method. Mutational rates to R were determined at 4×.

[2] = system: macrolide-resistant S. aureus (ermA, B, C genotype or MLSb-resistant); assay: Agar dilution MIC against resistant S. aureus; conditions: Staphylococcus aureus
Source text: (§1) The in vitro activity of CEM-102 was compared with that of telithromycin, azithromycin, erythromycin, levofloxacin, linezolid, and doxycycline against a total of 145 resistant S. aureus by agar dilution procedures (CLSI, M7-A7, M100-S18). The tested strains included S. aureus MRSA (Mec A genotype; 100 isolates), macrolide-resistant (ermA, B, C genotype or MLSb-resistant; 25), and ciprofloxacin-resistant (gyrA and parC genotype; 20).

[3] = system: ciprofloxacin-resistant (gyrA and parC genotype) S. aureus; assay: Agar dilution MIC against resistant S. aureus; conditions: Staphylococcus aureus
Source text: as §1

[4] = system: S. aureus MRSA (Mec A genotype); assay: Agar dilution MIC against resistant S. aureus; conditions: Staphylococcus aureus
Source text: as §1

S. aureus [5] = assay: MIC population distribution, 217 S. aureus Canadian isolates; conditions: 217 Canadian isolates
S. pyogenes [SPYO] = assay: Reference broth microdilution susceptibility testing, Canadian isolates
Source text: (§2) To determine a contemporary susceptibility (S) spectrum pattern. 153 GP isolates (123 S. aureus, 15 coagulase-negative staphylococci [CoNS] and 15 S. pyogenes [SPYO]) were collected from 5 Canadian medical centers between 2001 and 2006.

S. aureus [6] = assay: as above; conditions: overall S. aureus population
Source text: as §2

## Cc1onc(-c2ccccc2)c1C(=O)N[C@@H]1C(=O)N2[C@@H]1SC(C)(C)[C@@H]2C(=O)O [Oxacillin]
[1]
  Additive (number): 1
  Antagonism (number): 0
  Indeterminate (number): 1
  Indifferent (number): 3
  Synergy Complete (number): 0
  Synergy Partial (number): 1

## CC[C@H]1OC(=O)[C@H](C)[C@@H](O[C@H]2C[C@@](C)(OC)[C@@H](O)[C@H](C)O2)[C@H](C)[C@@H](O[C@@H]2O[C@H](C)C[C@H](N(C)C)[C@H]2O)[C@](C)(O)C[C@@H](C)CN(C)[C@H](C)[C@@H](O)[C@]1(C)O [azithromycin]
[2]
  MIC90: > 32 µg/mL
[3]
  MIC90: 16 µg/mL (≈ 21.4 µM)
[4]
  MIC90: > 32 µg/mL

## CC[C@H]1OC(=O)[C@H](C)C(=O)[C@H](C)[C@@H](O[C@@H]2O[C@H](C)C[C@H](N(C)C)[C@H]2O)[C@](C)(OC)C[C@@H](C)C(=O)[C@H](C)[C@H]2N(CCCCn3cnc(-c4cccnc4)c3)C(=O)O[C@]12C [telithromycin]
[2]
  MIC90: 4 µg/mL (≈ 4.93 µM)
[3]
  MIC90: 0.06 µg/mL (≈ 0.0739 µM)
[4]
  MIC90: 0.06 µg/mL (≈ 0.0739 µM)

## C[C@H]1c2cccc(O)c2C(=O)C2=C(O)[C@]3(O)C(=O)C(C(N)=O)=C(O)[C@@H](N(C)C)[C@@H]3[C@@H](O)[C@@H]21 [doxycycline]
[3]
  MIC90: 1 µg/mL (≈ 2.25 µM)
[4]
  MIC90: 1 µg/mL (≈ 2.25 µM)

## CN[C@H](CC(C)C)C(=O)N[C@H]1C(=O)N[C@@H](CC(N)=O)C(=O)N[C@H]2C(=O)N[C@H]3C(=O)N[C@H](C(=O)N[C@H](C(=O)O)c4cc(O)cc(O)c4-c4cc3ccc4O)[C@H](O)c3ccc(c(Cl)c3)Oc3cc2cc(c3O[C@@H]2O[C@H](CO)[C@@H](O)[C@H](O)[C@H]2O[C@H]2C[C@](C)(N)[C@H](O)[C@H](C)O2)Oc2ccc(cc2Cl)[C@H]1O [Vancomycin]
[1]
  Additive (number): 2
  Antagonism (number): 0
  Indeterminate (number): 0
  Indifferent (number): 4
  Synergy Complete (number): 0
  Synergy Partial (number): 0

## CCC[C@@H]1C[C@@H](C(=O)N[C@@H]([C@H]2O[C@H](SC)[C@H](O)[C@@H](O)[C@H]2O)[C@H](C)Cl)N(C)C1 [clindamycin]
S. aureus [5]
  resistance rate: 30.9%
S. pyogenes [SPYO]
  R rate: 13.3%
S. aureus [6]
  R rate: 28.5%

## CC(=O)NC[C@H]1CN(c2ccc(N3CCOCC3)c(F)c2)C(=O)O1 [linezolid]
[2]
  MIC90: 2 µg/mL (≈ 5.93 µM)
[3]
  MIC90: 2 µg/mL (≈ 5.93 µM)
[4]
  MIC90: 2 µg/mL (≈ 5.93 µM)

## CC[C@H]1OC(=O)[C@H](C)[C@@H](O[C@H]2C[C@@](C)(OC)[C@@H](O)[C@H](C)O2)[C@H](C)[C@@H](O[C@@H]2O[C@H](C)C[C@H](N(C)C)[C@H]2O)[C@](C)(O)C[C@@H](C)C(=O)[C@H](C)[C@@H](O)[C@]1(C)O [erythromycin]
[2]
  MIC90: > 32 µg/mL
[3]
  MIC90: > 32 µg/mL
[4]
  MIC90: > 32 µg/mL
S. aureus [5]
  resistance rate: 52.1%
S. pyogenes [SPYO]
  R rate: 20.0%
S. aureus [6]
  R rate: 52.0%

## CO[C@H]1/C=C/O[C@@]2(C)Oc3c(C)c(O)c4c(O)c(c(/C=N/N5CCN(C)CC5)c(O)c4c3C2=O)NC(=O)/C(C)=C\C=C\[C@H](C)[C@H](O)[C@@H](C)[C@@H](O)[C@@H](C)[C@H](OC(C)=O)[C@@H]1C [Rifampin]
[1]
  Additive (number): 1
  Antagonism (number): 0
  Indeterminate (number): 0
  Indifferent (number): 0
  Synergy Complete (number): 0
  Synergy Partial (number): 5

## Gentamicin
[1]
  Additive (number): 3
  Antagonism (number): 0
  Indeterminate (number): 0
  Indifferent (number): 1
  Synergy Complete (number): 1
  Synergy Partial (number): 1

## C[C@H]1COc2c(N3CCN(C)CC3)c(F)cc3c(=O)c(C(=O)O)cn1c23 [Levofloxacin]
[2]
  MIC90: 4 µg/mL (≈ 11.1 µM)
[3]
  MIC90: > 32 µg/mL
[4]
  MIC90: 16 µg/mL (≈ 44.3 µM)
[1]
  Additive (number): 0
  Antagonism (number): 0
  Indeterminate (number): 2
  Indifferent (number): 4
  Synergy Complete (number): 0
  Synergy Partial (number): 0
